Counter-ions that a name gives are not always drawn. Like-named read-outs stand apart in the source and are kept apart here.

The IC50 is the point on the concentration scale where inhibition reaches its midpoint. For orientation: EC50 means the concentration at which the effect is half-maximal.

Assay [1] has as its target BIR3 domain of human cIAP-1 (residues 267-363) (Homo sapiens (Human), UniProt Q13490). Put plainly: cIAP-1 in vitro competitive displacement binding assay (fluorescence polarization; Probe A AVPIK(5&6FAM)-amide or Probe B AbuRPFK(5&6FAM)-amide). (Fluorescence polarisation rises when a labelled molecule tumbles more slowly, as on binding a larger partner.)
Assay [2] has as its target BIR3 domain of human XIAP (residues 252-350) (Homo sapiens (Human), UniProt P98170). Briefly: XIAP in vitro competitive displacement binding assay (fluorescence polarization). Particulars: for IC50: read-out: IC50 or PI Xiap: IC50.
Assay [3] deals with EVSA-T (human breast carcinoma). Put plainly: Anti-proliferative activity, Alamar Blue assay, EVSA-T. Format: cell-based. In general terms: Resazurin is reduced to fluorescent resorufin, in cell work by metabolically active cells.
[4] abbreviates: Probe B AbuRPFK(5&6FAM)-amide, read-out: IC50 or PI cIAP1: IC50.
Where [5] appears, read: Homo sapiens, EVSA-T, 72 hours, Alamar Blue, read-out: EVSA-T prolif (EC50).
The mark [6] stands for this setting: read-out: IC50 or PI cIAP1: IC50.
[7] abbreviates: Homo sapiens, EVSA-T, 72 h, read-out: EVSA-T prolif (EC50).
Where [8] appears, read: 3 h, read-out: IC50 or PI cIAP1: PI.
Setting [9] is: 3 h, Probe B, @ 0.012 μM, read-out: IC50 or PI cIAP1: PI.
Setting [10] is: 1 h, @ 0.04 μM, read-out: IC50 or PI Xiap: PI.

Consider `C[C@@H]1CN(CC(=O)N2CC(C)(C)c3cnc(Cc4ccccc4)cc32)[C@@H](C(=O)N2CCC2)CN1` [Example 100, 2-[(2R,5R)-2-[(Azetidin-1-yl)carbonyl]-5-methyl-piperazin-1-yl]-1-{6-benzyl-3,3-dimethyl-1H,2H,3H-pyrrolo[3,2-c]pyridin-1-yl}ethan-1-one, hydrochloride salt], for which the half-inhibitory concentration (IC50) worked out at 14 nM in assay [1] (setting [4]) and 120 nM in assay [2]. In addition, the EC50 in assay [3] (setting [5]) amounted to 450 nM.

On to `COC[C@H]1CN[C@H](C)CN1CC(=O)N1CC(C)(C)c2ccc(S(=O)(=O)Cc3ccccc3)cc21` [Example 70, 1-(3,3-Dimethyl-6-phenylmethane-sulfonyl-2,3-dihydro-indol-1-yl)-2-((2R,5R)-2-methoxymethyl-5-methyl-piperazin-1-yl)-ethanone dihydrochloride salt], for which the IC50 was 820 nM in assay [1] (setting [6]) and 380 nM in assay [2]. The EC50 in assay [3] (Homo sapiens, EVSA-T, 72 h, read-out: EC50, inhibition of cell growth) is below 10000 nM; in assay [3] (setting [7]), 7900 nM.

Regarding `C[C@@H]1CN(CC(=O)N2CC(C)(C)c3cnc(Cc4ccc(F)cc4F)cc32)[C@@H](CN2CCC(F)(F)C2)CN1` [Example 208, 1-{6-[(2,4-Difluorophenyl)methyl]-3,3-dimethyl-1H,2H,3H-pyrrolo[3,2-c]pyridin-1-yl}-2-[(2R,5R)-2-[(3,3-difluoropyrrolidin-1-yl)methyl]-5-methylpiperazin-1-yl]ethan-1-one dihydrochloride], the inhibition at […] in assay [1] (setting [8]) was 99%. Also, the IC50 in assay [2] was 64 nM. Besides, the EC50 in assay [3] (setting [7]) was 4 nM.

As for `CCCC(F)(F)c1cc2c(cn1)C(C)(C)CN2C(=O)CN1C[C@@H](C)NC[C@@H]1CN1CCCC1=O` [Example 227, 1-{[(2R,5R)-1-{2-[6-(1,1-Difluorobutyl)-3,3-dimethyl-1H,2H,3H-pyrrolo[3,2-c]pyridin-1-yl]-2-oxoethyl}-5-methylpiperazin-2-yl]methyl}pyrrolidin-2-one hydrochloride], in assay [1] (setting [9]), the inhibition at […] was 78%. The inhibition at 0.04 µM in assay [2] (setting [10]) is 60%. For the same compound, in assay [3] (setting [5]), the EC50 turned out to be 27 nM.

Turning to `C[C@@H]1CN(CC(=O)N2CCc3cc(=O)n(Cc4ccccc4)cc32)CCN1.Cl` [Example 39, 6-Benzyl-1-[2-((R)-3-methyl-piperazin-1-yl)-acetyl]-1,2,3,6-tetrahydro-pyrrolo[2,3-c]pyridin-5-one hydrochloride salt], the inhibition at 1 µM in assay [1] (3 h, Probe A, @ 1 μM, read-out: IC50 or PI cIAP1: PI) was 46%. In assay [2] (1 h, @ 3 μM, read-out: IC50 or PI Xiap: PI), the inhibition at 3 µM came out at 55%. The “EVSA-T prolif: % inhibition” value in assay [3] (concentration not printed (cell truncated)) was −15% at.

For the compound `CCCC(F)(F)c1cnc2c(c1)N(C(=O)CN1C[C@@H](C)NC[C@@H]1CN1CC[C@@H](F)C1)CC2(C)C` [Example 223, 1-[6-(1,1-Difluorobutyl)-3,3-dimethyl-1H,2H,3H-pyrrolo[3,2-b]pyridin-1-yl]-2-[(2R,5R)-2-{[(3R)-3-fluoropyrrolidin-1-yl]methyl}-5-methylpiperazin-1-yl]ethan-1-one hydrochloride], the inhibition at […] in assay [1] (setting [9]) is 62%. The IC50 in assay [2] came out at 120 nM. In addition, the concentration giving a half-maximal response (EC50) in assay [3] (setting [5]) came to 81 nM.

Regarding `COC[C@H]1CN[C@H](C)CN1CC(=O)N1CC(C)(C)c2cnc(C(C)c3ccccc3)cc21` (stereo partly drawn) [Example 87, 1-[3,3-Dimethyl-6-(1-phenylethyl)-1H,2H,3H-pyrrolo[3,2-c]pyridin-1-yl]-2-[(2R,5R)-2-(methoxymethyl)-5-methylpiperazin-1-yl]ethan-1-one, hydrochloride salt], the half-inhibitory concentration (IC50) in assay [1] was below 1000 nM; in assay [1] (setting [4]) it was 24 nM; in assay [2], 240 nM. The EC50 in assay [3] (setting [5]) was found to be 510 nM.

In the case of `COC[C@H]1CN[C@H](C)CN1CC(=O)N1CC(C)(C)c2cnc(CC3CCCCC3)cc21` [Example 79, 1-[6-(Cyclohexylmethyl)-3,3-dimethyl-1H,2H,3H-pyrrolo[3,2-c]pyridin-1-yl]-2-[(2R,5R)-2-(methoxymethyl)-5-methylpiperazin-1-yl]ethan-1-one], the IC50 in assay [1] (setting [6]) was 25 nM; in assay [2] it was 1000 nM. The EC50 in assay [3] (setting [5]) was found to be 490 nM.

As for `CCC(F)(F)c1cc2c(cn1)C(C)(C)CN2C(=O)CN1C[C@@H](C)NC[C@@H]1CN1CC[C@@H](F)C1` [Example 214, 1-[6-(1,1-Difluoropropyl)-3,3-dimethyl-1H,2H,3H-pyrrolo[3,2-c]pyridin-1-yl]-2-[(2R,5R)-2-{[(3R)-3-fluoropyrrolidin-1-yl]methyl]-5-methylpiperazin-1-yl]ethan-1-one hydrochloride], the IC50 in assay [1] was below 1000 nM; in assay [1] (setting [4]), 24 nM; in assay [2] it was 82 nM. Further, in assay [3] (setting [5]), the EC50 is 190 nM.

As for `C[C@@H]1CN(CC(=O)N2CC(C)(C)c3cnc(Cc4ccc(F)cc4)cc32)[C@@H](CN2CCOC[C@H]2C)CN1` [Example 251, 1-{6-[(4-Fluorophenyl)methyl]-3,3-dimethyl-1H,2H,3H-pyrrolo[3,2-c]pyridin-1-yl}-2-[(2R,5R)-5-methyl-2-{[(3R)-3-methylmorpholin-4-yl]methyl}piperazin-1-yl]ethan-1-one dihydrochloride], the inhibition at […] in assay [1] (setting [8]) amounted to 99%. The inhibition at 0.04 µM in assay [2] (1 h, read-out: IC50 or PI Xiap: PI) came out at 68%. Moreover, the EC50 in assay [3] (setting [5]) amounted to 0.65 nM.

On to `C[C@@H]1CN(CC(=O)N2CC(C)(C)c3ncc(Cc4ccccc4F)cc32)[C@@H](CN2CCOCC2)CN1` [Example 247, 1-{6-[(2-Fluorophenyl)methyl]-3,3-dimethyl-1H,2H,3H-pyrrolo[3,2-b]pyridin-1-yl}-2-[(2R,5R)-5-methyl-2-(morpholin-4-ylmethyl)piperazin-1-yl]ethan-1-one dihydrochloride], for which the inhibition at […] in assay [1] (setting [8]) was determined as 80%. Further, the IC50 in assay [2] is 66 nM. Also, the half-maximal effective concentration (EC50) in assay [3] (setting [7]) came out at 33 nM.

Turning to `COC[C@H]1CN[C@H](C)CN1CC(=O)N1CC(C)(C)c2cnc(Oc3ccccc3Cl)cc21` [Example 110, 1-[6-(2-Chloro-phenoxy)-3,3-dimethyl-2,3-dihydro-pyrrolo[3,2-c]pyridin-1-yl]-2-((2R,5R)-2-methoxymethyl-5-methyl-piperazin-1-yl)-ethanone, hydrochloride salt], the IC50 in assay [1] (setting [4]) stood at 35 nM; in assay [2], 75 nM. The EC50 in assay [3] (setting [5]) turned out to be 600 nM.

`C[C@@H]1CN(CC(=O)N2CC3(Cc4ccccc4C3)c3ccc(Cl)cc32)[C@@H](Cn2cccn2)CN1` [Example 142, 1-{6′-Chloro-1,1′,2′,3-tetrahydrospiro[indene-2,3′-indole]-1′-yl}-2-[(2R,5R)-5-methyl-2-(1H-pyrazol-1-ylmethyl)piperazin-1-yl]ethan-1-one hydrochloride]: the IC50 in assay [1] (setting [4]) came to 150 nM; in assay [2], 220 nM. Besides, the inhibition at 1 µM in assay [3] (Homo sapiens, EVSA-T, at 1 μM, read-out: EVSA-T prolif: % inhibition) was determined as 20%.

In the case of `C[C@@H]1CN(CC(=O)N2CC(C)(C)c3cnc(C(F)(F)c4ccccc4)cc32)[C@@H](CN2CCN(C)C2=O)CN1` [Example 197, 1-{[(2R,5R)-1-(2-{6-[Difluoro(phenyl)methyl]-3,3-dimethyl-1H,2H,3H-pyrrolo[3,2-c]pyridin-1-yl}-2-oxoethyl)-5-methylpiperazin-2-yl]methyl}-3-methylimidazolidin-2-one hydrochloride], in assay [1] (setting [9]), the inhibition at […] came out at 76%. In assay [2] (setting [10]), the inhibition at 0.04 µM amounted to 68%. For the same compound, the EC50 in assay [3] (setting [5]) is 49 nM.

Values taken from US9018214B2, “Bicyclic heterocycle compounds and their uses in therapy” (Astex Therapeutics Limited, priority 2011, dated 2015).
